Measurements reported in BindingDB's records for doi:10.1021/jm051146h (Conforma Therapeutics, 2006).

Target: Heat shock protein HSP 90-beta (Homo sapiens, UniProt P08238)
Test: Her-2 Degradation Assay
Settings: not given
Procedure: A fluorescence histogram was generated, and the mean fluorescence intensity (MFI) of each sample was determined using Cellquest software.

Heat shock protein HSP 90-beta, sequence (P08238 whole entry): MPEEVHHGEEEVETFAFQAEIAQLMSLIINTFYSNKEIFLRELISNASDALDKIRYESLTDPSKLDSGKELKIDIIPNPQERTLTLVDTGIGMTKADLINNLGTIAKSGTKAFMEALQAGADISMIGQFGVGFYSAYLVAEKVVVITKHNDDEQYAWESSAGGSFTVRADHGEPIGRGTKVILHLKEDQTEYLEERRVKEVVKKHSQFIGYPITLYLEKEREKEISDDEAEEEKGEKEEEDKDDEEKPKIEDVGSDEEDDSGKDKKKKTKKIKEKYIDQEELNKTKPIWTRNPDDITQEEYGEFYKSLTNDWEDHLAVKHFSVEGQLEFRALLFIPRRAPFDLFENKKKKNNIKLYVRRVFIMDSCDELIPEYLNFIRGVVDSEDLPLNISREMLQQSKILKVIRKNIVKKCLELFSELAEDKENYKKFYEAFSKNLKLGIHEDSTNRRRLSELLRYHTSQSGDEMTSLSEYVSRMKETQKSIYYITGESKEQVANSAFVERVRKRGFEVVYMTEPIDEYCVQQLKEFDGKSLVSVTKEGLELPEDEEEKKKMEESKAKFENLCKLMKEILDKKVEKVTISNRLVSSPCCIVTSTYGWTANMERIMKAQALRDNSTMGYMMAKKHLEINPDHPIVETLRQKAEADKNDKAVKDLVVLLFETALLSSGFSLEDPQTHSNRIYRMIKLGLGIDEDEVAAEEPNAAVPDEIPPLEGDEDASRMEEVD

| Compound | EC50 [nM] |
| --- | --- |
| CCCCn1c(Sc2nc3cncc(Br)c3s2)nc2c(N)ncnc21 [8-({7-bromopyrido[3,4-d][1,3]thiazol-2-yl}sulfanyl)-9-butyl-9H-purin-6-amine] | 400 |
| CC(C)(C)NCCn1c(Sc2nc3cccc(Cl)c3s2)nc2c(N)ncnc21 [9-[2-(tert-butylamino)ethyl]-8-[(7-chloro-1,3-benzothiazol-2-yl)sulfanyl]-9H-purin-6-amine] | 140 |
| Nc1ncnc2c1nc(Sc1nc3cccc(Cl)c3s1)n2CCNC1CC1 [8-[(7-chloro-1,3-benzothiazol-2-yl)sulfanyl]-9-[2-(cyclopropylamino)ethyl]-9H-purin-6-amine] | 110 |
| CC(=O)OCCCn1c(Sc2nc3cncc(Cl)c3s2)nc2c(N)ncnc21 [3-[6-amino-8-({7-chloropyrido[3,4-d][1,3]thiazol-2-yl}sulfanyl)-9H-purin-9-yl]propyl acetate] | 170 |
| CC(C)NCCCn1c(Sc2nc3cccc(Cl)c3s2)nc2c(N)ncnc21 [8-[(7-chloro-1,3-benzothiazol-2-yl)sulfanyl]-9-[3-(propan-2-ylamino)propyl]-9H-purin-6-amine] | 170 |
| CC(C)(C)NCCCn1c(Sc2nc3cccc(Cl)c3s2)nc2c(N)ncnc21 [9-[3-(tert-butylamino)propyl]-8-[(7-chloro-1,3-benzothiazol-2-yl)sulfanyl]-9H-purin-6-amine] | 150 |
| CC(C)(C)CNCCn1c(Sc2nc3cccc(Cl)c3s2)nc2c(N)ncnc21 | 35 |
| CCCCn1c(Sc2nc3cncc(Cl)c3s2)nc2c(N)ncnc21 [9-butyl-8-({7-chloropyrido[3,4-d][1,3]thiazol-2-yl}sulfanyl)-9H-purin-6-amine] | 280 |

Same assay, conditions: pH 7.2; 37 °C

| Compound | EC50 [nM] |
| --- | --- |
| CCCCn1c(Sc2nc3cccc(Cl)c3s2)nc2c(N)ncnc21 | 180 |
| CC(=O)OCCn1c(Sc2nc3cccc(Cl)c3s2)nc2c(N)ncnc21 [2-{6-amino-8-[(7-chloro-1,3-benzothiazol-2-yl)sulfanyl]-9H-purin-9-yl}ethyl acetate] | 150 |
| Nc1ncnc2c1nc(Sc1nc3cccc(Cl)c3s1)n2CCCCO [4-{6-amino-8-[(7-chloro-1,3-benzothiazol-2-yl)sulfanyl]-9H-purin-9-yl}butan-1-ol] | 150 |
| CCCCn1c(Sc2nc3ccccc3s2)nc2c(N)ncnc21 [8-(1,3-benzothiazol-2-ylsulfanyl)-9-butyl-9H-purin-6-amine] | 5000 |
| CCCCn1c(Sc2nc3cccc(C)c3s2)nc2c(N)ncnc21 [9-butyl-8-[(7-methyl-1,3-benzothiazol-2-yl)sulfanyl]-9H-purin-6-amine] | 300 |
| CCCCn1c(Sc2nc3ccc(Cl)c(Cl)c3s2)nc2c(N)ncnc21 [9-butyl-8-[(6,7-dichloro-1,3-benzothiazol-2-yl)sulfanyl]-9H-purin-6-amine] | 25000 |
| CCCCn1c(Sc2nc3ccc(Cl)cc3s2)nc2c(N)ncnc21 [9-butyl-8-[(6-chloro-1,3-benzothiazol-2-yl)sulfanyl]-9H-purin-6-amine] | 7000 |
| CCn1c(Sc2nc3cccc(Cl)c3s2)nc2c(N)ncnc21 [8-[(7-chloro-1,3-benzothiazol-2-yl)sulfanyl]-9-ethyl-9H-purin-6-amine] | 200 |
| CCCCn1c(Sc2nc3cccc(Br)c3s2)nc2c(N)ncnc21 [8-[(7-bromo-1,3-benzothiazol-2-yl)sulfanyl]-9-butyl-9H-purin-6-amine] | 330 |
| CCCCn1c(Sc2nc3c(Cl)cccc3s2)nc2c(N)ncnc21 [9-butyl-8-[(4-chloro-1,3-benzothiazol-2-yl)sulfanyl]-9H-purin-6-amine] | 15000 |
| CC(=O)OCCCCn1c(Sc2nc3cccc(Cl)c3s2)nc2c(N)ncnc21 [4-{6-amino-8-[(7-chloro-1,3-benzothiazol-2-yl)sulfanyl]-9H-purin-9-yl}butyl acetate] | 130 |
| CCCn1c(Sc2nc3cccc(Cl)c3s2)nc2c(N)ncnc21 [8-[(7-chloro-1,3-benzothiazol-2-yl)sulfanyl]-9-propyl-9H-purin-6-amine] | 250 |
| Nc1ncnc2c1nc(Sc1nc3cccc(Cl)c3s1)n2CCO [2-{6-amino-8-[(7-chloro-1,3-benzothiazol-2-yl)sulfanyl]-9H-purin-9-yl}ethan-1-ol] | 300 |
| CCCCn1c(Sc2nc3cccc(F)c3s2)nc2c(N)ncnc21 [9-butyl-8-[(7-fluoro-1,3-benzothiazol-2-yl)sulfanyl]-9H-purin-6-amine] | 200 |
| CCCCn1c(Sc2nc3cccc(OC)c3s2)nc2c(N)ncnc21 [9-butyl-8-[(7-methoxy-1,3-benzothiazol-2-yl)sulfanyl]-9H-purin-6-amine] | 190 |
| N#CCCCCn1c(Sc2nc3cccc(Cl)c3s2)nc2c(N)ncnc21 [5-{6-amino-8-[(7-chloro-1,3-benzothiazol-2-yl)sulfanyl]-9H-purin-9-yl}pentanenitrile] | 110 |
| Nc1ncnc2c1nc(Sc1nc3cccc(Cl)c3s1)n2CCCO [3-{6-amino-8-[(7-chloro-1,3-benzothiazol-2-yl)sulfanyl]-9H-purin-9-yl}propan-1-ol] | 150 |
| CCCCCn1c(Sc2nc3cccc(Cl)c3s2)nc2c(N)ncnc21 [8-[(7-chloro-1,3-benzothiazol-2-yl)sulfanyl]-9-pentyl-9H-purin-6-amine] | 700 |
| CCCCn1c(Sc2nc3cccc(OCC)c3s2)nc2c(N)ncnc21 [9-butyl-8-[(7-ethoxy-1,3-benzothiazol-2-yl)sulfanyl]-9H-purin-6-amine] | 100000 |
| CC(=O)OCCCn1c(Sc2nc3cccc(Cl)c3s2)nc2c(N)ncnc21 [3-{6-amino-8-[(7-chloro-1,3-benzothiazol-2-yl)sulfanyl]-9H-purin-9-yl}propyl acetate] | 90 |
| Nc1ncnc2c1nc(Sc1nc3cccc(Cl)c3s1)n2CCN1CCOCC1 [8-[(7-chloro-1,3-benzothiazol-2-yl)sulfanyl]-9-[2-(morpholin-4-yl)ethyl]-9H-purin-6-amine] | 250 |
